Reference: patent US8410026B2, “Pyridazine fungicides” (Syngenta Crop Protection LLC, priority 2008, dated 2013)

Legend:
Alternaria solani = Alternaria solani / tomato / preventive (action against Alternaria on tomato); format: in vivo; settings: preventive spray, tomato plants cv. Roter Gnom, inoculated 2 days after application, assessed after 4 days incubation, read-out: inhibit fungal infestation
Method: (§1) Alternaria solani/Tomato/Preventive (Action Against Alternaria on Tomato) 4 weeks old tomato plants cv. Roter Gnom are treated with the formulated test compound in a spray chamber. Two days after application tomato plants are inoculated by spraying a spore suspension on the test plants. After an incubation period of 4 days at 22° C./18° C. and 95% r. h. in a greenhouse the disease incidence is assessed.

[1] = tested on: Puccinia recondite f. sp. tritici; assay: Puccinia recondite f. sp. tritici / wheat / preventive (action against brown rust on wheat); format: in vivo; settings: preventive spray, wheat plants cv. Arina, inoculated 1 day after application, assessed 11 days after inoculation, read-out: inhibit fungal infestation
Method: Puccinia recondite f. sp. tritici/Wheat/Preventive (Action Against Brown Rust on Wheat) 1 week old wheat plants cv. Arina are treated with the formulated test compound in a spray chamber. One day after application wheat plants are inoculated by spraying a spore suspension (1×105 uredospores/ml) on the test plants. After an incubation period of 1 day at 20° C. and 95% r. h. plants are kept for 10 days 20° C./18° C. (day/night) and 60% r. h. in a greenhouse. The disease incidence is assessed 11 days after inoculation.

[2] = tested on: Magnaporthe qrisea (Pyricularia oryzae); assay: whole plant or invertebrate; format: in vivo; settings: read-out: inhibit fungal infestation
[3] = tested on: Pyrenophora teres (Helminthosporium teres); assay: Pyrenophora teres (Helminthosporium teres) / barley / preventive (action against net blotch on barley); format: in vivo; settings: preventive spray, barley plants cv. Regina, inoculated 2 days after application, assessed after 4 days incubation, read-out: inhibit fungal infestation
Method: Pyrenophora teres (Helminthosporium teres)/Barley/Preventive (Action Against Net Blotch on Barley) 1-week-old barley plants cv. Regina are treated with the formulated test compound in a spray chamber. Two days after application barley plants are inoculated by spraying a spore suspension (2.6×10^4 conidia/ml) on the test plants. After an incubation period of 4 days at 20° C. and 95% r. h. the disease incidence is assessed.

[4] = tested on: Mycosphaerella graminicola (Septoria tritici); assay: Mycosphaerella graminicola (Septoria tritici) / wheat / preventive (action against Septoria leaf spot on wheat); format: in vivo; settings: Zymoseptoria tritici, preventive spray, wheat plants cv. Riband, inoculated 1 day after application, assessed 16-18 days after inoculation, read-out: inhibits fungal infestation
Method: Mycosphaerella graminicola (Septoria tritici)/Wheat/Preventive (Action Against Septoria Leaf Spot on Wheat) 2 weeks old wheat plants cv. Riband are treated with the formulated test compound in a spray chamber. One day after application wheat plants are inoculated by spraying a spore suspension (10^6 conidia/ml) on the test plants. After an incubation period of 1 day at 22° C./21° C. and 95% r. h. plants are kept at 22° C./21° C. and 70% r.h. in a greenhouse. The disease incidence is assessed 16-18 days after inoculation.

[5] = tested on: Uncinula necator (Erysiphe necator); assay: Uncinula necator (Erysiphe necator) / grape / preventive (action against powdery mildew on grape); format: in vivo; settings: preventive spray, grape seedlings cv. Gutedel, inoculated 1 day after application, assessed after 7 days incubation, read-out: inhibit fungal infestation
Method: Uncinula necator (Erysiphe necator)/Grape/Preventive (Action Against Powdery Mildew on Grape) 5 weeks old grape seedlings cv. Gutedel are treated with the formulated test compound in a spray chamber. One day after application grape plants are inoculated by shaking plants infected with grape powdery mildew above the test plants. After an incubation period of 7 days at 24° C./22° C. and 70% r. h. under a light regime of 14/10 h (light/dark) the disease incidence is assessed.

[6] = tested on: Botryotinia fuckeliana (Botrytis cinerea); assay: Botryotinia fuckeliana (Botrytis cinerea) / tomato / preventive (action against Botrytis on tomato); format: in vivo; settings: preventive spray, tomato plants cv. Roter Gnom, inoculated 2 days after application, assessed after 3 days incubation, read-out: inhibit fungal infestation
Method: as §1, with “Botryotinia fuckeliana (Botrytis cinerea)/Tomato/Preventive (Action” for “Alternaria solani/Tomato/Preventive (Action”, “Against Botrytis” for “Against Alternaria”, “of 3” for “of 4”, “at 20°” for “at 22° C./18°”

Structure (SMILES) | inhibition at 200 ppm (Alternaria solani) | inhibition at 200 ppm [1] | inhibition at 200 ppm [2] | inhibition at 200 ppm [3] | inhibition at 200 ppm [4] | melting point | inhibition at 200 ppm [5] | inhibition at 200 ppm [6]
COc1cc(F)c(-c2c(Cl)nnc(C)c2-c2ccc(Cl)nc2)c(F)c1 [I.a.20, 3-chloro-5-(6-chloro-pyridin-3-yl)-4-(2,6-difluoro-4-methoxy-phenyl)-6-methyl-pyridazine] | ≥ 80% | ≥ 80% | ≥ 80% | ≥ 80% | ≥ 80% | 148 to 149 °C |  | 
Cc1nnc(Cl)c(-c2c(F)cc(F)cc2F)c1-c1cnc(Cl)c(Cl)c1 [I.g.11, 3-chloro-5-(5,6-dichloro-pyridin-3-yl)-6-methyl-4-(2,4,6-trifluoro-phenyl)-pyridazine] |  |  | ≥ 80% |  |  | 185 to 188 °C | ≥ 80% | 
CCc1nnc(Cl)c(-c2c(F)cc(F)cc2F)c1-c1ccc(Cl)nc1 [I.a.14, 3-chloro-5-(6-chloro-pyridin-3-yl)-6-ethyl-4-(2,4,6-trifluoro-phenyl)-pyridazine] | ≥ 80% | ≥ 80% | ≥ 80% | ≥ 80% | ≥ 80% | 125 to 126 °C | ≥ 80% | 
CC(C)c1nnc(Cl)c(-c2c(F)cc(F)cc2F)c1-c1ccc(Cl)nc1 [I.a.17, 3-chloro-5-(6-chloro-pyridin-3-yl)-6-isopropyl-4-(2,4,6-trifluoro-phenyl)-pyridazine] |  |  |  |  |  | 146 to 149 °C |  | 
Cc1nnc(Cl)c(-c2c(F)cccc2Cl)c1-c1ccc(Cl)nc1 [I.a.02, 3-chloro-4-(2-chloro-6-fluoro-phenyl)-5-(6-chloro-pyridin-3-yl)-6-methyl-pyridazine] | ≥ 80% | ≥ 80% | ≥ 80% | ≥ 80% | ≥ 80% |  | ≥ 80% | ≥ 80%
COc1nnc(C)c(-c2ccc(Cl)nc2)c1-c1c(F)cc(F)cc1F [I.a.12, 4-(6-chloro-pyridin-3-yl)-6-methoxy-3-methyl-5-(2,4,6-trifluoro-phenyl)-pyridazine] | ≥ 80% | ≥ 80% |  | ≥ 80% |  | 123 to 124 °C | ≥ 80% | ≥ 80%
